Reference: patent US10093653B2, “Vitamin D receptor-coregulator inhibitors” (UWM Research Foundation, Inc., priority 2011, dated 2018)
≈ marks a conversion by molar mass, not a printed value.

Columns and labels:
[1] = in vitro; settings: PAMPA
[2] = physchem; settings: pH 7.4, aqueous buffer, kinetic from dmso stock
[3] = tested on: SKOV-3 cells; assay: Reactive oxygen species levels; type: cell-based; settings: SKOV-3, within 24 hours
Source text: (§1) Vitamin-d/VDR signaling protects the cancer cells from reactive oxygen species (ROS) induced cellular damages.

[4] = target: T1, VDR-SRC2 interaction (Homo sapiens, UniProt P11473, DEL165-215); assay: Pull down assay, VDR and SRC2 bearing all three NIDs
T1 sequence (P11473 with tags, fused parts or gaps DEL165-215 limits assumed): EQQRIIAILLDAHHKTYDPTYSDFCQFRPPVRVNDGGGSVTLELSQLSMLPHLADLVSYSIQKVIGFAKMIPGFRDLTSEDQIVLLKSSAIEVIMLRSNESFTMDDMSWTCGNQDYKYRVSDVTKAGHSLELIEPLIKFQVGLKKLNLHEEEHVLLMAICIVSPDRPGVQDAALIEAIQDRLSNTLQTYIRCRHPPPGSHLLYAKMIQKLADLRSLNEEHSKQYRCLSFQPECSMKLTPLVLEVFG

[5] = tested on: SKOV-3 cells; assay: Cell cycle analysis by FACS; type: cell-based; settings: SKOV-3, 24 hours
Source text: Inducing cell cycle arrest or targeting cell-cycle regulators by small molecule modulators has shown promising outcomes in animal models.

[6] = tested on: SKOV-3 cells; assay: Western blots for cleaved PARP-1 and cleaved caspase-3; type: cell-based; settings: SKOV-3, within 24 hours
[7] = tested on: SKOV-3 cells; assay: Mitochondrial transmembrane depolarization potential; type: cell-based
[8] = tested on: SKOV-3 cells; assay: Western blots for phospho-p38 MAPkinase and phospho SAPK/JNK; type: cell-based; settings: SKOV-3, 25 uM, within 24 hours
Source text: as §1

[9] = tested on: VDR in SKOV-3 cells; assay: VDR expression, western blotting of whole cell lysate; type: cell-based; settings: SKOV-3, 24 hours; 31b 25 and 50 uM, 32b 50 uM
Description: Expression of VDR was analyzed by western blotting of whole cell lysate using monoclonal antibody against VDR (Neomarker, Calif. cat no-RT-200PO).

[10] = tested on: TRPV6 in DU145 cells; assay: TRPV6 expression, semi-quantitative RT-PCR; type: cell-based
[11] = tested on: SKOV-3; assay: Cytotoxicity, MTS assay; type: cell-based; settings: SKOV-3, within 48 hours
[12] = target: T2, VDR-SRC2-1 (Homo sapiens, UniProt P11473, DEL165-215); assay: VDR-coregulator binding FP, Texas Red-labeled peptide; settings: 3 h
T2 construct: made in house
T2 sequence (P11473 with tags, fused parts or gaps DEL165-215 limits assumed): T1 sequence (P11473 with tags, fused parts or gaps DEL165-215 limits assumed)

[13] = tested on: OVCAR-8; assay: Cytotoxicity, MTS assay; type: cell-based; settings: OVCAR-8, within 48 hours
[14] = 12 h, pH 7.4
[15] = target: T3, VDR-Hr1 (Homo sapiens, UniProt P11473, DEL165-215); assay: VDR-coregulator binding FP, Texas Red-labeled peptide; settings: 3 h
T3 construct: made in house
T3 sequence (P11473 with tags, fused parts or gaps DEL165-215 limits assumed): T1 sequence (P11473 with tags, fused parts or gaps DEL165-215 limits assumed)

[16] = target: T4, VDR-LBD / SRC2-3 peptide (Homo sapiens, UniProt P11473, DEL165-215); assay: Identification of reaction partner, pre-incubation FP; type: binding; settings: FP after 5 minutes
T4 construct: made in house
T4 sequence (P11473 with tags, fused parts or gaps DEL165-215 limits assumed): T1 sequence (P11473 with tags, fused parts or gaps DEL165-215 limits assumed)

[17] = tested on: ECC-1; assay: Cytotoxicity, MTS assay; type: cell-based; settings: ECC-1 endometrial cancer cell-line, within 48 hours
[18] = tested on: DU145 cells; assay: Cytotoxicity seen in TRPV6 expression study; type: cell-based; settings: concentrations higher than 20 μM
[19] = PAMPA
[20] = tested on: CYP24A1; assay: CYP24A1 expression levels; type: cell-based; settings: compound and calcitriol
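Wherever Papp is given: passive permeability measured by parallel artificial membrane permeability assay, each experiment run in triplicate.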
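Wherever Permeability Log(Pe) is given: passive permeability measured by parallel artificial membrane permeability assay, each experiment run in triplicate.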

Work on Cc1[nH]c2ccccc2c1C(Nc1ccccc1)c1ccc(OCCCO)cc1 (stereo not shown) [Compound 30i, 3-(4-((2-methyl-1H-indol-3-yl)(phenylamino)methyl)phenoxy)propan-1-ol] yielded a Papp [1] of 0.148 ×10⁻⁶ cm/s and a solubility at 12 h [2] of 503 µM (≈ 195 µg/mL).

In the case of Cc1[nH]c2ccccc2c1C(Nc1ccc(Cl)cc1)c1ccccc1Cl (stereo not shown) [Compound 31b, 4-chloro-N-((2-chlorophenyl)(2-methyl-1H-indol-3-yl)methyl)aniline], the “Reactive oxygen species level compared to vehicle” value [3] was “elevated level of reactive production”, the “Inhibition of VDR-SRC2 interaction in pull down assay” value ([4]; 50 μM and 100 μM, residual interaction still detected) was “significant inhibition” and the “VDR-SRC2 interaction after pre-incubation of SRC2 with compound” value ([4]; beads washed, then treated with VDR) was “VDR-SRC2 interactions could be verified”. For the same molecule, the “Inhibition of VDR-SRC2 interaction in pull down assay” value ([4]; different concentrations, with 1,25(OH)2D3) was “blocked in a dose dependent manner”, the “Apoptotic (subG1/G0) population” value [5] was “increase” and the “Population in G1 and G2/M phase” value [5] was “reduced”. The “S-phase arrest of cycling cells” value [5] was “restricted the progression of cycling cells in S-phase significantly”, the “Activation of caspase-3” value [6] was “activation of caspase-3” and the “Cleavage of PARP-1” value [6] was “significant cleavage of PARP-1”. For the same molecule, the “Mitochondrial transmembrane depolarization potential (ΔΨm)” value [7] was “induced activation of mitochondrial transmembrane depolarization potential”, the “Activation of SAPK/JNK” value [8] was “strong/sustained activation of SAPK/JNK” and the “Activation of p38 MAPkinase” value [8] was “activation of p38 MAPkinase”. For the same molecule, the “Expression of VDR” value [9] was “downregulation of VDR”, the “TRPV6 transcription in the presence of 1,25-(OH)2D3” value ([10]; 20 nM 1,25-(OH)2D3, different concentrations) was “reduced in a dose dependent manner” and the “TRPV6 regulation, single treatment” value ([10]; 20 μM, without 1,25-(OH)2D3) was “no regulation of TRPV6”. For the same molecule, the “Cytotoxicity, cell viability” value [11] was “potent cytotoxicity”, the “Inhibition of VDR-SRC2-1 binding” value [12] was “no inhibition” and the “Cytotoxicity, cell viability” value [13] was “potent cytotoxicity”. The Solubility [14] was 68.0 µM (≈ 25.9 µg/mL), the “Inhibition of VDR-Hr1 binding” value [15] was “no inhibition” and the “FP signal after pre-incubation with SRC2-3 for 3 hours, then addition of VDR-LBD and LG190178” value [16] was “did not change”. The “FP signal after pre-incubation with VDR-LBD and LG190178 for 3 hours, then addition of SRC2-3” value [16] was “did result in a change of FP signal”, the “Cytotoxicity, cell viability” value [17] was “potent cytotoxicity” and the “Cytotoxicity in DU145 cells” value [18] was “increased cytotoxicity”. The “Permeability Log(Pe)” value [19] was −6.24 cm/s and the “CYP24A1 induction with calcitriol, in comparison to calcitriol treatment” value [20] was “significant increase in CYP24A1 induction”.
